From US6608003B2, “Herbicidal solutions comprising fatty acid ammonium salts and dicarboxylic acid diesters and methods of using the same” (Falcon Lab LLC, priority 2000, dated 2003)

How the values were obtained:
[1] = Solubility of the diester in 40% aqueous ammonium pelargonate solution; type: physicochemical; settings: for amount of ester that dissolves in 100 g of 40% ammonium pelargonate to give a clear composition: 22 deg, successive additions of 99% ester; for dissolved diester content of the clear aqueous ammonium pelargonate composition: by weight, 40% (saturated) ammonium pelargonate solution
Experimental: A 40% solution of ammonium pelargonate was prepared by slowly adding 33 g. of 28% ammonium hydroxide to a stirred mixture of 89.3 g. of nonanoic acid (commercial pelargonic acid from Cognis Corp.) and 124.3 g. of distilled water.
To 361 gm. (2.29 mole) of technical pelargonic acid was added slowly with stirring a solution of 139 gm. of 28% ammonium hydroxide (2.29 mole NH3) in 500 ml. of deionized water.
A 40% solution of ammonium pelargonate was prepared by slowly adding 33 g. of 28% ammonium hydroxide to a stirred mixture of 89.3 g. of nonanoic acid (commercial pelargonic acid from Cognis Corp.) and 124.3 g. of distilled water. […]

[2] = Solubility in water; type: physicochemical

| Structure (SMILES) | amount of ester that dissolves in 100 g of 40% ammonium pelargonate to give a clear composition [1] | dissolved diester content of the clear aqueous ammonium pelargonate composition [1] | solubility in water (in words) [2] |
| --- | --- | --- | --- |
| COC(=O)CCCCCCC(=O)OC [dimethyl suberate, Dimethyl suberate] | 19.3 g | 16.2% | insoluble in water |
| COC(=O)CCCCCC(=O)OC [dimethyl pimelate, Dimethyl pimelate] | 22.5 g | 17.9% | insoluble in water |
